According to ChEMBL document CHEMBL1201862, “PubChem BioAssay data set” (2004):
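Assay format: 96-well plates, 48-hour exposure. GI50 = concentration required for 50% inhibition of growth.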 Activity calls are given as the source filed them. No stated cut-off is given here; in the data, active = GI50 up to about 1.1 µM and inactive = higher.

Assays:
Assay in all cases: NCI anticancer screen, dose series, 48 h
UO-31 = system: UO-31
A549 = system: A549
KM-20L2 = system: KM-20L2
M14 = system: M14
HOP-62 = system: HOP-62
MOLT-4 = system: MOLT-4
OVCAR-5 = system: OVCAR-5
SN12C = system: SN12C
SNB-75 = system: SNB-75
TK-10 = system: TK-10
K562 = system: K562
RPMI-8226 = system: RPMI-8226
DMS-273 = system: DMS-273
SF-539 = system: SF-539
KM12 = system: KM12

Measured: GI50

COC(=O)C(=O)C(C(=O)C=C(C)C)C(=O)C(=O)Nc1ccc(Cl)cc1C (stereo not given)
inactive: UO-31 > 100 µM | A549 > 100 µM | KM-20L2 > 100 µM | M14 > 100 µM | HOP-62 > 100 µM | MOLT-4 > 100 µM | OVCAR-5 > 100 µM | SN12C > 100 µM | SNB-75 > 100 µM | TK-10 > 100 µM | K562 71.8 µM | RPMI-8226 70 µM | DMS-273 35.6 µM | SF-539 > 100 µM | KM12 > 100 µM
